Experimental data from patent US20250375453A1, “HIGH-EFFICIENCY ANTIMICROBIAL COMPOSITION” (CM4CURE S.A., priority 2023, published 2025).

Assays:
Candida albicans (CA) = assay: MIC in monotherapy and in combination therapy (ISO standard 20776-1); format: cell-based
Excerpt: (§1) Summary of MIC Values for Fluometacyl (FLC)+Chlorhexidine (CHX) Tested Against MRSA, Enterococcus faecalis (VRE), Pseudomonas aeruginosa (PA) and Candida albicans (CA).
(§2) By Minimum Inhibitory Concentration (MIC) one means the lowest concentration of antimicrobial that prevents visible growth of a microorganism (determined according to ISO standard 20776-1).
(§3) This finds an implication in combining many known antimicrobials together rather than discovering new chemical entities.

[1] = test system: Pseudomonas aeruginosa (PA); assay: as above; format: cell-based
Excerpt: as §1, §2, §3

[2] = test system: Staphylococcus aureus (MRSA); assay: as above; format: cell-based
Excerpt: as §1, §2, §3

[3] = test system: Staphylococcus aureus MSSA; settings: cited from earlier work
[4] = test system: Staphylococcus aureus MRSA; settings: cited from earlier work
Enterococcus faecalis = settings: cited from earlier work
Lactobacillus reuteri = settings: cited from earlier work
Lactobacillus fermentum = settings: cited from earlier work
Porphyromonas gingivalis = settings: cited from earlier work
Fusobacterium nucleatum = settings: cited from earlier work
Escherichia coli = settings: cited from earlier work
Pseudomonas aeruginosa = settings: cited from earlier work
Candida albicans = settings: cited from earlier work
Candida tropicalis = settings: cited from earlier work
Candida krusei = settings: cited from earlier work
Aspergillus spp. = settings: cited from earlier work
[5] = MIC combination / MIC monotherapy

[H]/N=C(\N/C(=N/[H])NCCCCCCNC(=N)NC(=N)Nc1ccc(Cl)cc1)Nc1ccc(Cl)cc1 [Chlorhexidine, chlorhexidine]
MIC (Candida albicans (CA); Candida albicans, antimicrobial alone, read-out: MIC Monotherapy (X)): 4000 µg/mL
Ratio Y/X (Candida albicans (CA); [5]): 0.5
MIC combination dual therapy (Y) (Candida albicans (CA); in FLC + CHX combination): 2000 µg/mL
Ratio Y/X [1, 5]: 0.25
MIC ([1]; Pseudomonas aeruginosa, antimicrobial alone, read-out: MIC Monotherapy (X)): 16000 µg/mL
MIC combination dual therapy (Y) ([1]; in FLC + CHX combination): 4000 µg/mL
Ratio Y/X [2, 5]: 0.25-0.5
MIC ([2]; Staphylococcus aureus, MRSA, antimicrobial alone, read-out: MIC Monotherapy (X)): 1000 µg/mL
MIC combination dual therapy (Y) ([2]; in FLC + CHX combination): 250 to 500 µg/mL
MIC of chlorhexdine [3]: 0.25 to 8 µg/mL
MIC of chlorhexdine [4]: 2 to 8 µg/mL
MIC of chlorhexdine (Enterococcus faecalis): 4 to 16 µg/mL
MIC of chlorhexdine (Lactobacillus reuteri): 0.125 to 4 µg/mL
MIC of chlorhexdine (Lactobacillus fermentum): 0.25 to 1 µg/mL
MIC of chlorhexdine (Porphyromonas gingivalis): 0.9 µg/mL
MIC of chlorhexdine (Fusobacterium nucleatum): 1.8 µg/mL
MIC of chlorhexdine (Escherichia coli): 2 to 16 µg/mL
MIC of chlorhexdine (Pseudomonas aeruginosa): 16 to 32 µg/mL
MIC of chlorhexdine (Candida albicans): 1 to 16 µg/mL
MIC of chlorhexdine (Candida tropicalis): 75 µg/mL
MIC of chlorhexdine (Candida krusei): 150 µg/mL
MIC of chlorhexdine (Aspergillus spp.): 8 to 64 µg/mL
